Assay results: article PMC10019194, “Killing Two Birds with One Stone: Discovery of Dual Inhibitors of Oxygen and Fumarate Respiration in Zoonotic Parasite, Echinococcus multilocularis” (Antimicrobial Agents and Chemotherapy, 2023)
“Also recorded” adds a separate entry of the source. Like-named read-outs stand apart in the source and are kept apart here.

Assays:
A. suum complex II = target: T1, A. suum complex II (Ascaris suum, UniProt O44074+P92506+P92507); experiment: Complex II activity of A. suum mitochondrial fraction; type: biochemical
T1 construct: from tissue; host or cells: A. suum mitochondrial fraction
T1 sequence (O44074 22-282): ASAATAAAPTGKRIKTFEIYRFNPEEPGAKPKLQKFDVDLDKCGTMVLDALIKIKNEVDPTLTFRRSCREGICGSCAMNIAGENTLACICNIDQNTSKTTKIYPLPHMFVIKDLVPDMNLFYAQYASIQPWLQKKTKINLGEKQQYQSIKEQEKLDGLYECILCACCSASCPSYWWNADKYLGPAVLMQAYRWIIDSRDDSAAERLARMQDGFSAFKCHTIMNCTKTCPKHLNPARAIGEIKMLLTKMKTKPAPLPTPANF
T1 sequence (P92506 32-188): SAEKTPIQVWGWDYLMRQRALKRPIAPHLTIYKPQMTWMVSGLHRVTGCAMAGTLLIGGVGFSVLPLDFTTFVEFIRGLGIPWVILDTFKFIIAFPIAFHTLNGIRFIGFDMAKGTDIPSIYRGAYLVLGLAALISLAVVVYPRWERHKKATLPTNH
T1 sequence (P92507 26-156): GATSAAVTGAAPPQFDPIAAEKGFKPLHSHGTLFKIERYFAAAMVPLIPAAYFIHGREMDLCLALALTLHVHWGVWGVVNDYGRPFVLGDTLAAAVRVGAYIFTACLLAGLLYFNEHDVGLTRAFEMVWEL
T1 sequence (Q33862 19-645 partner): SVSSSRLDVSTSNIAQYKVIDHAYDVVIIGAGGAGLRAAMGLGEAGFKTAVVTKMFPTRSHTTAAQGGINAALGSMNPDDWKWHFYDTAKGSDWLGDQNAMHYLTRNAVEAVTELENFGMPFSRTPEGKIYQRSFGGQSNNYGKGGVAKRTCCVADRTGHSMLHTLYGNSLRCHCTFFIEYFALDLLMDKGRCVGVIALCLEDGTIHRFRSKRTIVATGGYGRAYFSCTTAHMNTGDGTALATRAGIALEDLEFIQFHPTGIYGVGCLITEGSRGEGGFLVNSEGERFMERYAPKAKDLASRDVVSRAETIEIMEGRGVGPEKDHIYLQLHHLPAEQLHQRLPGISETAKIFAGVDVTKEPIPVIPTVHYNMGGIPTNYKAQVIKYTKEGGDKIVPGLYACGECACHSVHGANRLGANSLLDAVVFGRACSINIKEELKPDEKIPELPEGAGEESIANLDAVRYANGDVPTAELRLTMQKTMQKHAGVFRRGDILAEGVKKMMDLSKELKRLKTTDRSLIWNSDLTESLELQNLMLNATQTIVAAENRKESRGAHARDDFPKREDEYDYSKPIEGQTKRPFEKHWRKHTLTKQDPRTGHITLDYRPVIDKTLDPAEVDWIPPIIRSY
Text: Cyst tissues containing E. multilocularis (Nemuro strain) protoscoleces isolated from infected hispid cotton rats, Sigmodon hispidus, were used. The tissues were shredded through a metal mesh (0.5 mm diameter). Then, the tissues were repeatedly suspended and washed with physiological saline in a tall beaker to obtain protoscoleces by exploiting the buoyancy difference between protoscoleces and other tissue ([26]). The obtained protoscoleces were homogenized with a motor-driven homogenizer to prepare the mitochondrial fraction. The homogenate was diluted with mitochondrial preparation buffer (210 mM mannitol, 10 mM sucrose, 1 mM disodium EDTA, and 50 mM Tris-HCl [pH 7.5]) supplemented with 10 mM sodium malonate to 5 times the volume of the original protoscolex homogenate, and then centrifuged at 800 × g for 10 min (4°C) to remove cell debris and nuclei. The supernatant was then centrifuged at 8,000 × g for 10 min (4°C) to obtain the mitochondrial pellet. […]
NADH:quinone reductase activity (complex I), succinate:quinone reductase activity (complex II), and succinate:cytochrome c reductase activity (complexes II to III) were measured using a UV-3000 spectrophotometer (Shimadzu, Kyoto, Japan) as described previously ([4], [6]). […] NADH:quinone reductase activity was measured in 50 mM potassium phosphate buffer (pH 7.4) containing 2 mM potassium cyanide, KCN (Sigma, St. Louis, MO, USA), and 60 μM decylubiquinone (Sigma). The activity assay was started by the addition of 50 μM NADH (Fujifilm-Wako, Tokyo, Japan) and recorded as the rate of NADH consumption as monitored at 340 nm (ε = 6.2 mM^−1 cm^−1). […] SQR activity was determined by monitoring the change in absorbance of quinone at 278 nm (ε = 15 mM^−1 cm^−1) in the presence of 60 μM decylubiquinone, 2 mM KCN, and the inhibitor. […] NADH:cytochrome c activity (complex I to III) was measured in the reaction buffer (30 mM potassium phosphate, 1 mM MgCl2, pH 7.5) containing 2 mM KCN, 50 μM cytochrome c (Nacalai Tesque, Kyoto, Japan), and the inhibitor. […]

[1] = target: complex II (succinate:quinone reductase, SQR) (Echinococcus multilocularis, UniProt A0A1Z4EAW8+A0A1Z4EAX0+A0A1Z4EAX1); experiment: Succinate:quinone reductase (SQR) activity (complex II) in protoscoleces mitochondrial fraction; type: biochemical
Chain of complex II (succinate:quinone reductase, SQR) (A0A1Z4EAV8 entry or part of it): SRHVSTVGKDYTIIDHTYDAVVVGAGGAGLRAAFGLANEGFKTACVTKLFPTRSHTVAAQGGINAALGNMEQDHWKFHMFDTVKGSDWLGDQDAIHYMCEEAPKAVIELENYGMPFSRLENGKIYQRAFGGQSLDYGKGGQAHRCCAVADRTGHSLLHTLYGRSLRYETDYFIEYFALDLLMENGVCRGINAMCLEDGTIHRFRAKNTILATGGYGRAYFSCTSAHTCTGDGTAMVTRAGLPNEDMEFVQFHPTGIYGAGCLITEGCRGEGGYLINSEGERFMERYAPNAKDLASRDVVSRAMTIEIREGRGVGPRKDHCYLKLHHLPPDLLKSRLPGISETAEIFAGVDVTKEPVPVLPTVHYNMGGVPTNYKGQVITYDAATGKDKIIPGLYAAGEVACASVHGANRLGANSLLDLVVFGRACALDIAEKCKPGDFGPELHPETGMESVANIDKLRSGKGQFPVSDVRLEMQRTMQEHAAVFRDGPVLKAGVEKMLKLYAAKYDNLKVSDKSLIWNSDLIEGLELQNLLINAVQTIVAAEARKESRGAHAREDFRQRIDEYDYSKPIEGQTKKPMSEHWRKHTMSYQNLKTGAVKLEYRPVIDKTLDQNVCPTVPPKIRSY
Chain of complex II (succinate:quinone reductase, SQR) (A0A1Z4EAX1 entry or part of it): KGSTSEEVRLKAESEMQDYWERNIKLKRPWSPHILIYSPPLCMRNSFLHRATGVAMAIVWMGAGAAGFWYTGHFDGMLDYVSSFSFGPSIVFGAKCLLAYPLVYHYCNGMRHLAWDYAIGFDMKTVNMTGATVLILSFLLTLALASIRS
Chain of complex II (succinate:quinone reductase, SQR) (A0A1Z4EAX0 entry or part of it): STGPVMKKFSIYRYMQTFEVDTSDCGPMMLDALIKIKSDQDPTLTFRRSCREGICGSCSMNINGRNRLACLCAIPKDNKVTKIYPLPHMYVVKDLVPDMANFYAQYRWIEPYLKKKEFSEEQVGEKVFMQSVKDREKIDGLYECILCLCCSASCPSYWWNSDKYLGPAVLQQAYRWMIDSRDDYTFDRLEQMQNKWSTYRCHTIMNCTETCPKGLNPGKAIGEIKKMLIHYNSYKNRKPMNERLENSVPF
Chain of complex II (succinate:quinone reductase, SQR) (A0A1Z4EAW8 entry or part of it): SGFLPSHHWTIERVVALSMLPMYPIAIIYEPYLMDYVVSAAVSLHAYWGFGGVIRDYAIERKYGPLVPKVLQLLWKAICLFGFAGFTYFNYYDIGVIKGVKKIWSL
Text: (§1) Cyst tissues containing E. multilocularis (Nemuro strain) protoscoleces isolated from infected hispid cotton rats, Sigmodon hispidus, were used. The tissues were shredded through a metal mesh (0.5 mm diameter). Then, the tissues were repeatedly suspended and washed with physiological saline in a tall beaker to obtain protoscoleces by exploiting the buoyancy difference between protoscoleces and other tissue ([26]). The obtained protoscoleces were homogenized with a motor-driven homogenizer to prepare the mitochondrial fraction. The homogenate was diluted with mitochondrial preparation buffer (210 mM mannitol, 10 mM sucrose, 1 mM disodium EDTA, and 50 mM Tris-HCl [pH 7.5]) supplemented with 10 mM sodium malonate to 5 times the volume of the original protoscolex homogenate, and then centrifuged at 800 × g for 10 min (4°C) to remove cell debris and nuclei. The supernatant was then centrifuged at 8,000 × g for 10 min (4°C) to obtain the mitochondrial pellet. Next, the pellet was resuspended in mitochondrial preparation buffer (without malonate) and centrifuged at 8,000 × g for 10 min (4°C). The enriched mitochondrial fraction was finally suspended in approximately 0.5 to 1.0 mL of mitochondrial preparation buffer without malonate and frozen at −50°C. The mitochondrial fraction from A. suum was prepared essentially as described previously ([27], [28]).
(§2) NADH:quinone reductase activity (complex I), succinate:quinone reductase activity (complex II), and succinate:cytochrome c reductase activity (complexes II to III) were measured using a UV-3000 spectrophotometer (Shimadzu, Kyoto, Japan) as described previously ([4], [6]). Briefly, all enzyme assays using mitochondrial fractions were performed in 0.5- or 1.0-mL reaction mixtures at 25°C. A freeze/thaw process was performed before the assay to ensure that the mitochondrial membrane was permeable to the solutes. The final mitochondrial protein concentration was 50 μg/mL. NADH:quinone reductase activity was measured in 50 mM potassium phosphate buffer (pH 7.4) containing 2 mM potassium cyanide, KCN (Sigma, St. Louis, MO, USA), and 60 μM decylubiquinone (Sigma). The activity assay was started by the addition of 50 μM NADH (Fujifilm-Wako, Tokyo, Japan) and recorded as the rate of NADH consumption as monitored at 340 nm (ε = 6.2 mM^−1 cm^−1). The reagents used in the SQR activity assay were mixed with the reaction buffer containing 50 mM potassium phosphate (pH 7.4) and 0.1% (wt/vol) sucrose monolaurate (DOJINDO, Kumamoto, Japan). SQR activity was determined by monitoring the change in absorbance of quinone at 278 nm (ε = 15 mM^−1 cm^−1) in the presence of 60 μM decylubiquinone, 2 mM KCN, and the inhibitor. The reaction was initiated by the addition of 10 mM disodium succinate to the mixture. NADH:cytochrome c activity (complex I to III) was measured in the reaction buffer (30 mM potassium phosphate, 1 mM MgCl2, pH 7.5) containing 2 mM KCN, 50 μM cytochrome c (Nacalai Tesque, Kyoto, Japan), and the inhibitor. The assay was performed after the addition of 100 mM malonate to block complex II activity. The reaction was started by adding 50 μM NADH to the mixture, and the enzyme activity was determined by monitoring the change in absorbance of cytochrome c at 550 nm (ε = 19 mM^−1 cm^−1). IC50 values of AF and its derivatives against the specific activities of mitochondrial respiratory enzymes in protoscoleces were determined. The IC50 of each compound was determined by calculating approximation lines from three or more points on either side of the IC50 concentration.

[2] = target: succinate-cytochrome c reductase (complexes II to III) (Echinococcus multilocularis, UniProt Q9TE80); experiment: Succinate:cytochrome c reductase activity (complexes II to III); type: biochemical; conditions: read-out: IC50 against succinate-cytochrome c reductase
Experimental: NADH:quinone reductase activity (complex I), succinate:quinone reductase activity (complex II), and succinate:cytochrome c reductase activity (complexes II to III) were measured using a UV-3000 spectrophotometer (Shimadzu, Kyoto, Japan) as described previously ([4], [6]). Briefly, all enzyme assays using mitochondrial fractions were performed in 0.5- or 1.0-mL reaction mixtures at 25°C. A freeze/thaw process was performed before the assay to ensure that the mitochondrial membrane was permeable to the solutes. The final mitochondrial protein concentration was 50 μg/mL. NADH:quinone reductase activity was measured in 50 mM potassium phosphate buffer (pH 7.4) containing 2 mM potassium cyanide, KCN (Sigma, St. Louis, MO, USA), and 60 μM decylubiquinone (Sigma). The activity assay was started by the addition of 50 μM NADH (Fujifilm-Wako, Tokyo, Japan) and recorded as the rate of NADH consumption as monitored at 340 nm (ε = 6.2 mM^−1 cm^−1). […] SQR activity was determined by monitoring the change in absorbance of quinone at 278 nm (ε = 15 mM^−1 cm^−1) in the presence of 60 μM decylubiquinone, 2 mM KCN, and the inhibitor. […] NADH:cytochrome c activity (complex I to III) was measured in the reaction buffer (30 mM potassium phosphate, 1 mM MgCl2, pH 7.5) containing 2 mM KCN, 50 μM cytochrome c (Nacalai Tesque, Kyoto, Japan), and the inhibitor. […]

[3] = target: complex I and III (NADH:cytochrome c reductase) (Echinococcus multilocularis, UniProt Q9TE80); experiment: NADH:cytochrome c reductase activity (complex I to III) in protoscoleces mitochondrial fraction; type: biochemical
Chain of complex I and III (NADH:cytochrome c reductase) (Q9TE80 entry or part of it): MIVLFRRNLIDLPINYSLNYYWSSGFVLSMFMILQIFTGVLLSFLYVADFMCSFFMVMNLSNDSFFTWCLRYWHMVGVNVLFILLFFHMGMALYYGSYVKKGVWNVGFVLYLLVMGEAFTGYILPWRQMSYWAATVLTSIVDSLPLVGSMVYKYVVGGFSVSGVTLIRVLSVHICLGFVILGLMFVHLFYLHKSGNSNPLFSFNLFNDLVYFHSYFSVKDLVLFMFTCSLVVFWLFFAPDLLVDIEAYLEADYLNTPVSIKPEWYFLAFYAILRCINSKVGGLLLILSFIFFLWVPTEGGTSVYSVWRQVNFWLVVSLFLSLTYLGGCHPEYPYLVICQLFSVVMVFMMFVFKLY
Chain of complex I and III (NADH:cytochrome c reductase) (Q9GP40 whole entry, further chain): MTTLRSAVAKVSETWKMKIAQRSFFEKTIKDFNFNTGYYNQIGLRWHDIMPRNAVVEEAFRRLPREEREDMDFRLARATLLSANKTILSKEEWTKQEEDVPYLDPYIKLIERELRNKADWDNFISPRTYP
Chain of complex I and III (NADH:cytochrome c reductase) (Q9TE76 entry or part of it, further chain): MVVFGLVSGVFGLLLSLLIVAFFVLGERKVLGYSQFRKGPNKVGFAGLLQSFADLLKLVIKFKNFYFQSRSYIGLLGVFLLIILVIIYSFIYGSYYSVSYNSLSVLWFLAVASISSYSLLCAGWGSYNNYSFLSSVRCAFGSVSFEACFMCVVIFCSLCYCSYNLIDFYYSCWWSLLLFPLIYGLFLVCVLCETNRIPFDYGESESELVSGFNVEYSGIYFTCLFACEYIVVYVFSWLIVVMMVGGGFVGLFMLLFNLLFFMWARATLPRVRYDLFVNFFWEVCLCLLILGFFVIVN
Text: as §1, §2

[4] = target: complex I (NADH:quinone reductase) (Echinococcus multilocularis, UniProt A0A068Y553+A0A068Y9L9+Q9TE76); experiment: NADH:quinone reductase activity (complex I) in protoscoleces mitochondrial fraction; type: biochemical; conditions: for IC50: E. multilocularis protoscoleces mitochondria, read-out: IC50 NADH:decyl rhodoquinone reductase (complex I)
Text: as §1
as §2, with “Louis, MO, USA), and 60 μM decylubiquinone (Sigma).” left out, “SQR activity was determined by monitoring the change in absorbance of quinone at 278 nm (ε = 15 mM^−1 cm^−1) in the presence of 60 μM decylubiquinone, 2 mM KCN, and the inhibitor.” left out

[5] = system: E. multilocularis protoscoleces; experiment: Ex vivo culture assay of live protoscoleces, viability by trypan blue exclusion; type: cell-based, Echinococcus multilocularis; conditions: 50 μM; for antiparasitic effect on protoscoleces in culture assay: both anaerobic and aerobic conditions
Experimental: FIG 5 Viability of E. multilocularis protoscoleces in ex vivo culture assay. The E. multilocularis protoscoleces were treated with ascofuranone (AF) and its derivatives in culture under aerobic and anaerobic conditions (O2 <0.3%). Each compound was added to the culture medium at a final concentration of 50 μM. The control group was supplemented with 0.5% (vol/vol) dimethyl sulfoxide (DMSO). Atovaquone (ATV) was used as positive control and to ensure anaerobic conditions in the culture. The viability of protoscoleces was evaluated by their ability to exclude trypan blue. The data are presented as the mean ± standard deviation (n = 3).
The obtained protoscoleces were cultured in Connaught Medical Research Laboratories 1066 medium (Gibco, Grand Island, NY, USA) containing 0.5% (wt/vol) yeast extract (Difco Laboratories, Detroit, MI, USA), 2 mM L-glutamine (Gibco), 23 mM 4-(2-hydroxyethyl)-1-piperazineethanesulfonic acid, 0.5% (wt/vol) D (+)-glucose, 0.4 mM sodium taurocholate (Wako Pure Chemical Industries, Osaka, Japan), 57 mM sodium hydrogen carbonate, and 100 U/mL penicillin-streptomycin (Gibco). The protoscoleces were observed daily for seven consecutive days, and half of the medium was replaced on day 3. For anaerobic cultures, six-well plates were sealed in plastic containers with oxygen-detecting agents and oxygen scavengers (Aneromeito, Nissui Pharmaceutical, Tokyo, Japan) to keep the oxygen concentration below 0.3% at 37°C. The protoscoleces were treated with AF and its derivatives at a final concentration of 50 μM in the culture medium, and the duration of parasite elimination was investigated. The control group was supplemented with 0.5% (vol/vol) dimethyl sulfoxide (DMSO), and all conditions were assayed in triplicate. We used ATV in a culture assay as positive control and to ensure anaerobic conditions in the culture ([4], [5]). […] The viability of protoscoleces was determined after microscopic observation of more than 170 protoscoleces per well using the trypan blue exclusion test, as described previously ([4], [6], [33]).

[6] = IC50 against E. multilocularis complex II (SQR), figure legends, supplement
[7] = E. multilocularis protoscoleces mitochondria; mean ± SEM; Table 1; read-out: IC50 NADH:cytochrome c reductase (complex I and III)
[8] = IC50 Succinate:quinone reductase (SQR) (complex II), E. multilocularis protoscoleces mitochondria, mean ± SEM, Table 1
[9] = IC50, inhibition of E. multilocularis SQR, Table 2, substitutions on the benzene group, mean ± SEM
[10] = IC50, E. multilocularis SQR inhibition, Table 5, furanone ring-substituted derivatives, mean ± SEM

CC(C)(C)c1ccc(CNC(=O)c2ccccc2C(F)(F)F)cc1 [NN23, reference compound]
IC50 (A. suum complex II; A. suum mitochondrial fraction, read-out: IC50 against A. suum complex II): 5 nM | IC50 ([1]; figure legends, supplement, read-out: IC50 against E. multilocularis complex II (SQR)): > 20000 nM

O=C1C(O)=C([C@H]2CC[C@H](c3ccc(Cl)cc3)CC2)C(=O)c2ccccc21 [ATV, Atovaquone, reference compound]
IC50 [2]: 2 nM | IC50 [1, 6]: 690 nM

CC(C)=CCC/C(C)=C/CC/C(C)=C/Cc1c(O)c(Cl)cc(C=O)c1O [Compound D1]
IC50 [3, 7]: 274 ± 25 nM | IC50 [4]: > 50000 nM | IC50 [1, 8]: 88 ± 13 nM

CC(=O)c1cc(Cl)c(O)c(C/C=C(\C)CCC=C(C)C)c1O [Compound D5]
IC50 (A. suum complex II): 11000 nM | fold less potent inhibition of A. suum complex II than of E. multilocularis complex II (A. suum complex II; ratio of IC50 A. suum / E. multilocularis): 234 fold | day of complete elimination of protoscoleces ([5]; aerobic culture): ≤ 6 days | day of complete elimination of protoscoleces ([5]; anaerobic culture (O2 <0.3%)): ≤ 5 days | antiparasitic effect on protoscoleces in culture assay [5]: strong antiparasitic effect | IC50 [3, 7]: 221 ± 44 nM | IC50 [4]: > 50000 nM | IC50 [1, 9]: 47 ± 11 nM | IC50 [1, 8]: 47 ± 11 nM

C/C(=C\Cc1c(O)c(Cl)c(C)c(C=O)c1O)CC/C=C(\C)[C@@H]1CC(=O)C(C)(C)O1 [AF, Ascofuranone]
viability of protoscoleces during treatment ([5]; aerobic culture): progressively reduced | viability / killing of protoscoleces during treatment ([5]; anaerobic culture (O2 <0.3%)): progressively reduced; also recorded: strong killing effect | antiparasitic effect on protoscoleces in culture assay [5]: strong antiparasitic effect | IC50 ([3]; read-out: IC50 NADH:cytochrome c reductase (complex I and III); E. multilocularis protoscoleces mitochondria; mean ± SEM; Table 1): 57 ± 11 nM | inhibition of NADH:ubiquinone reductase activity of complex I [4]: not inhibited | IC50 [4]: > 50000 nM | IC50 [1, 10]: 1100 ± 210 nM | IC50 [1, 9]: 1100 ± 210 nM | IC50 [1, 8]: 1100 ± 210 nM

CC(=O)c1cc(Cl)c(O)c(C/C=C(\C)CC/C=C(\C)CCC=C(C)C)c1O [Compound D4]
elimination of protoscoleces on day 7 ([5]; aerobic culture, day 7): 34% | elimination of protoscoleces by day 7 ([5]; anaerobic culture (O2 <0.3%), day 7): 65% | antiparasitic effect on protoscoleces in culture assay [5]: weak | IC50 [3, 7]: 109 ± 9 nM | IC50 [4]: > 50000 nM | IC50 [1, 8]: 37 ± 8 nM

CC(C)=CCC/C(C)=C/CC/C(C)=C/Cc1c(O)c(Cl)c(C)c(C=O)c1O [Compound D2]
day of complete elimination of protoscoleces ([5]; aerobic culture): ≤ 4 days | day of complete elimination of protoscoleces ([5]; anaerobic culture (O2 <0.3%)): 6 days | antiparasitic effect on protoscoleces in culture assay [5]: strong antiparasitic effect | IC50 [3, 7]: 8 ± 2 nM | selectivity complex III over complex II (aerobic vs anaerobic) ([3]; IC50 complex II 0.309 μM vs complex III 0.008 μM): 38 fold | IC50 [4]: > 50000 nM | IC50 [1, 10]: 309 ± 21 nM | IC50 [1, 8]: 309 ± 21 nM | IC50 [1, 6]: 300 nM

CC(=O)c1c(C)c(Cl)c(O)c(C/C=C(\C)CC/C=C(\C)CCC=C(C)C)c1O [Compound D3]
IC50 [3, 7]: 14 ± 2 nM | IC50 [4]: > 50000 nM | IC50 [1, 8]: 135 ± 14 nM
